Literature values in US20130071904A1, “ACETATE-RESISTANT YEAST STRAIN FOR THE PRODUCTION OF A FERMENTATION PRODUCT” (priority 2010, published 2013).

Tested on: Saccharomyces cells
Conditions: Pons et al. 1984

In the case of `CC(=O)O` [Acetate], the “effect on growth of Saccharomyces cells” value is listed as “inhibits the growth”.
